Reference: US20230158152A1, “PROTEOLYSIS REGULATOR AND METHOD FOR USING SAME” (MEDSHINE DISCOVERY INC., priority 2020, published 2023)

System: human lung cancer cell NCI-H2228
Assay: Anti-proliferative effect in human lung cancer cell NCI-H2228 (CellTiter-Glo)
Assay type: cell-based
Conditions: NCI-H2228, 72 h, cell proliferation, cultured for 3 days
Method: In this assay, the inhibitory effect of assay compounds on cell proliferation was assayed in human lung cancer cell NCI-H2228.
(1) Promega CellTiter-Glo luminescent cell viability assay kit (Promega-G7573). (2) 2104 EnVision® plate reader, PerkinElmer.
The tumor cell line was cultured in a 37° C., 5% CO2 incubator according to the above-mentioned culture conditions. Cells were passaged periodically, and cells in logarithmic growth phase were used for plating.
(1). Cells were stained with trypan blue and viable cells were counted; (2). The cell concentration was adjusted to an appropriate concentration;
(3). 90 μL of cell suspension was added to each well of the culture plate as shown in the table above, and cell-free culture medium was added to the blank control well; (4). The plate was incubated in an incubator at 37° C., 5% CO2, and 100% relative humidity overnight.
Preparation of a mother solution storage plate with 400 times the starting compound concentration: the compounds were diluted serially with DMSO from the highest concentration to the lowest concentration. The plate was prepared freshly every time it was used.
(1). 78 μL of cell culture medium was added to a 96-well plate with a V-shaped bottom. […]
(1). […] The culture plate was left at room temperature for 10 minutes to stabilize the luminescence signal; (9). The luminescent signal was detected on a 2104 EnVision plate reader. […]

IC50: 91 nM
SMILES: Cc1cc(Nc2ncc(Cl)c(Nc3ccccc3S(=O)(=O)C(C)C)n2)c(OC(C)C)cc1C1CCN(CC(=O)NCCOc2ccc3occ(C4CCC(=O)NC4=O)c3c2)CC1 (stereo not shown) [WX001]
